Reference: patent US6291247A, “Methods of screening for factors that disrupt neurotrophin conformation and reduce neurotrophin biological activity” (priority 1996, dated 2001)

How the values were obtained:
PC12 cells [1] = assay: NGF-dependent survival of PC12 cells; type: cell-based, rat; conditions: for Antagonism of NGF-dependent survival: high (1 nM) or low (50 pM) NGF; for Survival @ 50 pM NGF / Survival @ 1 nM NGF: rat, pc12 cells, 100 µM
Method: (§1) Effects of divalent ions on NGF mediated survival and toxicity was evaluated using a colorimetric assay for the lysosomal enzyme acid phosphatase to determine cell number (Connolly, D. T., Knight, M. B., Harakas, N. K, Wittwer, A. J. & Feder, J. Determination of the number of endothelial cells in culture using an acid phosphatase assay. Anal. Biochem. 152, 136-140 (1986); Ueda, Y., Walsh, E., Nakanishi H. & Yoshida, K. A. colorometric assay method for the evaluation of neurotrophic activity in vitro. Neurosci. Lett. 165, 203-207 (1994)). […] To evaluate toxicity, the cells were seeded and maintained without NGF in RPMI with 10% heat inactivated donor horse serum and 5% fetal calf serum in the presence of additives. Loss in viable cell number was determined and expressed as a percent of control. NGF rescues PC12 cells from cell death in serum-free medium(Greene, L. A. Nerve growth factor prevents the death and stimulates neuronal differentiation of clonal PC12 pheochromocytoma cells in serum-free medium. J. Cell Biol. 78, 747-755 (1978)). NGF-dependent survival was assessed by harvesting PC12 cells in balanced salt solution followed with washing by 4 cycles of suspension and centrifugation in serum-free RPMI prior to seeding in 96 well plates. After incubation with additives, medium was removed from the wells and cells washed once with 200 μl PBS. Buffer containing 0.1M sodium acetate pH 5.5, 0.1% Triton X-100 and 10 mM p-nitrophenyl phosphate (Sigma 104 phosphatase substrate) was added to each well (100 μl). Plates were incubated at 37° C. for 3 hours. The reaction was stopped by the addition of 10 μl/well of 1N sodium hydroxide and the color development measured at 405 nm using a microplate reader. The relationship between cell number and enzyme activity was linear over the range 1000 to 15,000 cells.
(§2) To explore the ability of other transition metals to influence the biological activities of NGF, a series of cations known to mimic in certain respects the binding of zinc to proteins were tested. […] For this reason these ions were not tested in NGF- dependant growth phenomena. […] As these studies appeared to indicate potentially complex results upon metal ions binding to NGF, a receptor crosslinking system where specific receptor types could be identified was utilized.

NGF = target: T1, NGF (Mus musculus, UniProt P01139); assay: NGF protomer crosslinking with BS3 (NGF conformation), metal ions; type: biochemical; conditions: for NGF Protomer Conformation (active/inactive): 100 μM
T1 construct: homodimer
T1 sequence (P01139 122-239): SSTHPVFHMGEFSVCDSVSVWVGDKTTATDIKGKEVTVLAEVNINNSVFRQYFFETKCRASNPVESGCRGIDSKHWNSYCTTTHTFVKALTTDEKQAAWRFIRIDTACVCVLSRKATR
Method: For crosslinking NGF […], 0.4 mM BS^3 was added to the mixture and incubated for 30 minutes at 25° C. […] For CD studies, NGF (50 μg/ml) was dissolved in 50 mM Tris-HCl buffer and spectra recorded using a computer controlled Jasco J-600 spectropolarimeter. Samples were acquired in the absence or presence of Zn^2+ (100 μM) at 22° C. in a 2 mm quartz cell averaged over eight scans. Modification of His residues by DEPC was carried out as previously described, where the molar excess of DEPC added and the extent of reaction was determined by evaluating the loss of binding activity of the modified product.

PC12 cells [2] = assay: Toxicity to PC12 cells; type: cell-based, rat; conditions: 100 μM
Method: as §1, §2

p75^NTR /TrkA = assay: Receptor crosslinking of 125I-NGF with transition metal ions (receptor selectivity); type: binding
Sequence of p75^NTR /TrkA (P01139 122-239): as above
Sequence of p75^NTR /TrkA (P07174 30-425 partner): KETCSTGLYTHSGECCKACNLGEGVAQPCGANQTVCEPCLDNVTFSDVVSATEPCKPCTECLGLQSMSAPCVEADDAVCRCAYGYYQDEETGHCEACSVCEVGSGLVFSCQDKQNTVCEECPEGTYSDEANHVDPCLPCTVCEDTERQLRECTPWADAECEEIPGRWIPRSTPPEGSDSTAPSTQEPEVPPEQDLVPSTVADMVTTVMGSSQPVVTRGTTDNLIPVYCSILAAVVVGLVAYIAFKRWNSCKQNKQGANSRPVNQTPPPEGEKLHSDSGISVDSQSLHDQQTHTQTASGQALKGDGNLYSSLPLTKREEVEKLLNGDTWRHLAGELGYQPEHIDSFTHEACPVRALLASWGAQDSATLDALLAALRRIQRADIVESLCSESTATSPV
Sequence of p75^NTR /TrkA (P35739 33-799 partner): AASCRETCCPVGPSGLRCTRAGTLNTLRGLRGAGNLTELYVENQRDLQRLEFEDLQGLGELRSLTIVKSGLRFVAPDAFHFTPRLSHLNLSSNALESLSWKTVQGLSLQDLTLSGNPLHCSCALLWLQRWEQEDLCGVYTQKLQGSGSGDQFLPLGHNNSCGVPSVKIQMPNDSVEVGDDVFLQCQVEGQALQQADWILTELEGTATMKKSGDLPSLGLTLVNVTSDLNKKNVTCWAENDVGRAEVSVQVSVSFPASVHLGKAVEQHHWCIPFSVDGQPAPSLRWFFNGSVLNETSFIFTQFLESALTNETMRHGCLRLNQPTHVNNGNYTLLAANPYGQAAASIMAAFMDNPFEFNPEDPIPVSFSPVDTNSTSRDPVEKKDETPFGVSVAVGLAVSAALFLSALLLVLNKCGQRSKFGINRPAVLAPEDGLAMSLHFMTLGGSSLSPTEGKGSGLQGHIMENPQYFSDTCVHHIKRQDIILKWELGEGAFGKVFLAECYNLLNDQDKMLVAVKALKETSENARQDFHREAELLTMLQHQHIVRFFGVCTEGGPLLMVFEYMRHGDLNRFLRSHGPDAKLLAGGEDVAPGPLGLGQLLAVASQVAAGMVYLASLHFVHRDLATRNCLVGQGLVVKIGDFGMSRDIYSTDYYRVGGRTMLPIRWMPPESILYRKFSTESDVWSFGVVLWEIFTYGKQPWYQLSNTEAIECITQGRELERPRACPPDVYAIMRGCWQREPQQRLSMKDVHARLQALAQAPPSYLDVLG
Method: as §2

p75^NTR and TrkA [3] = tested on: T2, p75^NTR and TrkA; assay: Binding of 125I-NGF to PC12 cells (p75NTR + TrkA); parameters: species or system rat
T2 construct: these cells express both NGF receptor types; endogenous in cells; host or cells: PC12 rat pheochromocytoma cells
T2 sequence (P01139 122-239): as the sequence (P01139 122-239) above
Method: (§3) PC12 cells were grown in RPMI with 10% heat inactivated donor horse serum and 5% fetal calf serum. […] The tubes were incubated for 2 hr at 4° C. and 100 μl aliquots (providing triplicate data points for each sample) were transferred to 400 μl microcentrifuges containing 200 μl of 10% glycerol in HKR. Tubes were centrifuged for 2 minutes at 5,000 rpm, the tip containing the cell pellet cut off and radioactivity bound to the cells was determined.

p75^NTR and TrkA [4] = target: T3, p75^NTR and TrkA (Mus musculus, UniProt P01139); assay: Binding of 125I-NGF to PC12 cells (p75NTR + TrkA); parameters: species or system rat; conditions: for Total Binding to PC12 cells: 100 μM, 125I-NGF, 120 min
T3 construct: these cells express both NGF receptor types; endogenous in cells; host or cells: PC12 rat pheochromocytoma cells
T3 sequence (P01139 122-239): as above
Method: as §3

SMILES | Antagonism of NGF-dependent survival (PC12 cells [1]) | Survival @ 50 pM NGF (PC12 cells [1]) [% control] | Survival @ 1 nM NGF (PC12 cells [1]) [% control] | NGF Protomer Conformation (active/inactive) (NGF) | Toxicity (PC12 cell viability) (PC12 cells [2]) [% control] | Blocking of NGF binding to TrkA and p75NTR in receptor crosslinking (p75^NTR /TrkA) | Prevention of 125I-NGF binding to PC12 cells (p75^NTR and TrkA [3]) | Total Binding to PC12 cells (p75^NTR and TrkA [4]) [% control] | Protomer crosslinking efficiency of NGF modified with DEPC (NGF; no Zn2+) | Receptor binding activity of NGF modified with DEPC (p75^NTR and TrkA [4])
[Cu+2] [Cu^2+] | ability to antagonize the NGF-dependant survival | -2 ± 19 | -6 ± 8 | active | 74 ± 10 | blocked binding to both receptors | ability to prevent binding | -16 ± 7 |  | 
CCOC(=O)OC(=O)OCC [DEPC, diethyl-pyrocarbonate, reference compound] |  |  |  |  |  |  |  |  | reduction in protomer crosslinking efficiency | loss in receptor binding activity
[Mn+2] [Mn^2+] |  | 91 ± 5 | 59 ± 24 | inactive | 82 ± 4 | did not have a significant effect |  | 95 ± 24 |  | 
[Pd+2] [Pd^2+] |  | 82 ± 9 | 125 ± 48 | active | 75 ± 6 | blocked binding to both receptors | ability to prevent binding | -5 ± 1 |  | 
[Pt+2] [Pt^2+] | ability to antagonize the NGF-dependant survival | 74 ± 21 | 92 ± 35 | active | 93 ± 6 | blocked binding to both receptors |  | 68 ± 11 |  | 
